Format in all cases: cell-based, bovine
Assay [1] relates to eNOS. Briefly: eNOS Ser 1177 phosphorylation, Western blot in BAECs. The method, then: (§1) Cells were harvested in lysis buffer (1% Triton X-100, 50 mM Tris, pH 7.4, 150 mM NaCl, 1 mM Na3VO4 and 0.1% protease inhibitor tablet; Roche) and clarified by centrifugation at 16,000 g. Equal amounts of proteins were incubated with a specific antibody overnight at 4° C. with gentle rotation. Protein A/G Plus-agarose beads (Santa Cruz Biotechnology, Santa Cruz, Calif.) were used to pull down the antibody complexes. Afterward, beads were washed with lysis buffer, and immune complexes were separated by SDS-PAGE. Total cell lysates were separated by SDS-PAGE and transferred to nitrocellulose membranes.
The degree of SDF-1α-induced activation of eNOS was examined in bovine aortic endothelial cells (BAECs) by monitoring phosphorylation of the Ser 1177 activation site in eNOS. […] Phosphorylation of Ser 1177 peaked at 5 minutes after SDF-1α stimulation (FIG. 1A), and increased in a dose-dependent fashion over a SDF-1α concentration range of 50 ng/ml to 500 ng/ml (FIG. 1B), which approximates physiologically relevant SDF-1α concentrations.

The subject of assay [2] is JNK3. Briefly: JNK activation (phospho-JNK Western blot) in BAECs. As to conditions: BAECs. The method, then: as §1
Mitogen-activated protein kinases (MAPKs), including ERK1/2 and p38, have been reported to enhance angiogenesis (20, 21). However, the role of JNK in angiogenesis remains controversial, with studies showing both positive and negative outcomes of JNK activation. In order to determine which MAPKs are involved in SDF-1α-induced endothelial cell migration, we screened the activities and expression levels of ERK1/2, p38 and JNK following treatment of BAECs with SDF-1α. […] SDF-1α activated both JNK and ERK1/2 in a dose-dependent manner (FIG. 2B). […] Protein and mRNA for all three JNK isoforms, JNK1, JNK2 and JNK3, can be found in BAECs (FIGS. 5, A&B). In order to determine which JNK protein(s) was activated by SDF-1α in these cells we used a previously described assay (22). Exogenous JNK1, JNK2 and JNK3 proteins containing Flag or GFP-epitopes were transiently expressed in BAECs and their activities were determined via western blotting with a phospho-JNK antibody following SDF-1α treatment. […] To confirm the finding that JNK3 is the only JNK entity activated by SDF-1α, we transfected cells with siRNAs for each of the JNK proteins and then tested the effect of each siRNA for the ability to suppress SDF-1α-induced JNK activation. […] Because JNK3 was the only SDF-1α-activated JNK in endothelial cells in our studies (FIG. 2C & FIG. 5, C), we consider the phospho-JNK signals in western blots with anti-phospho-JNK antibody as the signals for activated JNK3.
Background: In western blotting, separated proteins are transferred to a membrane and probed.

In assay [3] the test system is BAECs. Briefly: Scratch wound healing assay. As to conditions: 50 ng/ml SDF-1alpha, no inhibitor. The method, then: For detection of cell migration, a wound healing assay was performed as previously described (40). BAECs were grown on 35 mm wells, the monolayer was scratched with a sterile disposable rubber policeman and the edge labeled with a traced line. After injury, the cells were gently washed with normal media without serum. EC migration from the edge of the injured monolayer was quantified by measuring the area between the wound edges before and the recovered area after injury using light microscopy (Eclipse TS100, 4× objective, Nikon) and the computer program ImageJ.
To determine whether eNOS activation is required for SDF-1α-mediated endothelial cell migration, we performed scratch-wound healing and Boyden chamber migration assays in the presence of the NOS-specific inhibitor L-NMMA (19). Confluent BAECs were pretreated for one hour with 1 mM or 5 mM L-NMMA or vehicle prior to each assay. […] Similarly, cell migration in Boyden chambers was induced by SDF-1α (from 8±3 to 86±5 cells per field), but this increase in migration was inhibited by the pre-incubation of BAECs with L-NMMA (FIG. 1D). The involvement of eNOS in SDF-1α-induced endothelial cell migration was confirmed by treatment of cells with siRNAs specific for eNOS. […]

In assay [4] the test system is BAECs. Description: In vitro Matrigel angiogenesis (tube formation) assay. As to conditions: 50 ng/ml SDF-1α, control siRNA cells. The method, then:
Endothelial cell tube formation was analyzed with the Matrigel-based tube formation assay (40, 41). Chilled 24-well plates were coated with growth factor-reduced Matrigel (Becton Dickinson, San Jose, Calif.) that was polymerized at 37° C. for 30 min. BAECs were transfected with siRNA constructs with the Amaxa Nucleofector electroporation reagent. Three days later, cells were trypsinized, and plated at equal numbers into each Matrigel-coated well. After 18 hours of incubation in the absence or presence of SDF-1alpha, the formation of tubes was photographed (Eclipse, 10× objective, TS100Nikon). Images were quantified with ImageJ.
Endothelial cell migration is a critical step for tube formation during angiogenesis. To test the importance of JNK3 in highly ordered cell assembly processes, we examined the effect of JNK knockdown with siRNAs on the formation of capillary-like tubes in Matrigel. BAECs were transfected with JNK1 siRNA, JNK2 siRNA, JNK3 siRNA or control siRNA. After 72 hours, cells were plated on Matrigel in medium containing 50 ng/ml SDF-1α.

In assay [5] the test system is BAECs. Description: Boyden chamber migration assay. The method, then: Boyden chamber assays were performed as previously described (40, 41) using a 48-well chamber apparatus (NeuroProbe, Cabin John, Md.). The lower chambers of the apparatus were filled with DMEM with or without SDF-1alpha and then covered with the collagen-coated filter and the upper chambers. Cells pretreated with or without the indicated inhibitors were then added to the upper chambers. After incubating for 6 h at 37° C., cells present on the lower surface were fixed, stained and identified with the 40× objective lens on a Nikon Eclipse TS 100 inverted microscope.
To determine whether eNOS activation is required for SDF-1α-mediated endothelial cell migration, we performed scratch-wound healing and Boyden chamber migration assays in the presence of the NOS-specific inhibitor L-NMMA (19). Confluent BAECs were pretreated for one hour with 1 mM or 5 mM L-NMMA or vehicle prior to each assay. […] Endothelial cells were transfected with 1 of 3 different bovine eNOS-specific siRNAs, or mixture of all three, and 72 hours later cell lysates were examined by western blot analysis for levels of eNOS protein.

With SDF-1α, the “time of peak phosphorylation of eNOS Ser 1177 after stimulation” value in assay [1] (50 ng/ml SDF-1alpha) worked out at 5 min. Further, the “eNOS phosphorylation (Ser 1177)” value in assay [1] (50 ng/ml to 500 ng/ml SDF-1α) was “time- and dose-dependent manner”. Besides, the “phosphorylation of exogenous Flag/GFP-tagged JNK1, JNK2, JNK3” value in assay [2] (50 ng/ml SDF-1alpha for 5 minutes) is recorded as “only phosphorylation of JNK3 (but not JNK1 or JNK2) was increased”. Further, in assay [2] (SDF-1α 50 ng/ml), the JNK activity entry is “potently induced”. The “BAEC migration towards the wounded area” value in assay [3] is reported as 56.0±12.0%. In assay [4], this substance displayed a tube length of 605±106 μm. Further, the “cell migration in Boyden chambers” value in assay [5] (50 ng/ml SDF-1alpha, no inhibitor (FIG. 1D)) is 86±5 cells per field. The same substance registered an endothelial cell migration in assay [5] (control-transfected BAECs, 50 ng/ml SDF-1alpha (FIG. 4F)) of 125±9 cells/field.

Source of the values: patent US8153589B2, “JNK3 as a target for the treatment of angiogenesis-related diseases” (The University of North Carolina at Chapel Hill, priority 2009, dated 2012).
